The test system of this series is CCRIS mutagenicity, Ames/micronucleus/aberration tests. The series can be described thus: CCRIS mutagenicity studies.
Setting [1] is: Test System: AMES SALMONELLA TYPHIMURIUM, Strain/Indicator: TA98, Metabolic Activation: NONE, Method: STANDARD PLATE.
The mark [2] stands for this setting: Test System: AMES SALMONELLA TYPHIMURIUM, Strain/Indicator: TA98, Metabolic Activation: RAT, LIVER, S-9, AROCLOR 1254, Method: STANDARD PLATE.
Where [3] appears, read: Test System: AMES SALMONELLA TYPHIMURIUM, Strain/Indicator: TA100, Metabolic Activation: NONE, Method: STANDARD PLATE.
[4] abbreviates: Test System: AMES SALMONELLA TYPHIMURIUM, Strain/Indicator: TA100, Metabolic Activation: RAT, LIVER, S-9, AROCLOR 1254, Method: STANDARD PLATE.
[5] abbreviates: Test System: AMES SALMONELLA TYPHIMURIUM, Strain/Indicator: TA1537, Metabolic Activation: NONE, Method: STANDARD PLATE.
Where [6] appears, read: Test System: AMES SALMONELLA TYPHIMURIUM, Strain/Indicator: TA1537, Metabolic Activation: RAT, LIVER, S-9, AROCLOR 1254, Method: STANDARD PLATE.
Setting [7] is: Test System: AMES SALMONELLA TYPHIMURIUM, Strain/Indicator: TA1538, Metabolic Activation: NONE, Method: STANDARD PLATE.
Setting [8] is: Test System: AMES SALMONELLA TYPHIMURIUM, Strain/Indicator: TA1538, Metabolic Activation: RAT, LIVER, S-9, AROCLOR 1254, Method: STANDARD PLATE.

SMILES strings stand for the structures. Active and inactive are the calls of the source. The rule behind the calls is not given here.

As for `O=C(O)c1ccc(N=Nc2ccc(O)c(C(=O)O)c2)cc1`, the mutagenic call is, setting by setting: under setting [1], “inactive; negative”; under setting [2], “inactive; negative”; under setting [3], “inactive; negative”; under setting [4], “inactive; negative”; (Test System: AMES SALMONELLA TYPHIMURIUM, Strain/Indicator: TA1535, Metabolic Activation: NONE, Method: STANDARD PLATE) “inactive; negative”; (Test System: AMES SALMONELLA TYPHIMURIUM, Strain/Indicator: TA1535, Metabolic Activation: RAT, LIVER, S-9, AROCLOR 1254, Method: STANDARD PLATE) “inactive; negative”. The mutagenic call under setting [5] was “inactive; negative”; the mutagenic call under setting [6] is “inactive; negative”; the mutagenic call under setting [7] was “inactive; negative”; the mutagenic call under setting [8] was “inactive; negative”; the mutagenic call (Test System: CHINESE HAMSTER V-79, Strain/Indicator: V-79 (HGPRT)/8-AZAGUANINE, Metabolic Activation: NONE) is “inactive; negative”; the mutagenic call (Test System: CHINESE HAMSTER V-79, Strain/Indicator: V-79 (HGPRT)/8-AZAGUANINE, Metabolic Activation: RAT, LIVER, S-9) is “inactive; negative”.
In the case of `O=c1[nH]c(=O)n([C@H]2C[C@H](O)[C@@H](CO)O2)cc1CO`, the mutagenic call under setting [1] is “inactive; negative”; the mutagenic call under setting [2] was “inactive; negative”; the mutagenic call under setting [3] is “active; positive”; the mutagenic call under setting [4] was “active; positive”; the mutagenic call (Test System: AMES SALMONELLA TYPHIMURIUM, Strain/Indicator: TA102, Metabolic Activation: NONE, Method: STANDARD PLATE) was “active; positive”; the mutagenic call under setting [5] was “inactive; negative”. Further, the mutagenic call runs as follows: under setting [6], “inactive; negative”; (Test System: CHINESE HAMSTER V-79, Strain/Indicator: V-79/6-THIOGUANINE, Metabolic Activation: NONE) “active; positive”; (Test System: CHINESE HAMSTER V-79, Strain/Indicator: V-79/OUABAIN, Metabolic Activation: NONE) “inactive; negative”.
For the compound `O=CN(O)c1ccc([N+](=O)[O-])cc1`, the mutagenic call runs as follows: (Test System: AMES SALMONELLA TYPHIMURIUM, Strain/Indicator: TA98(NR), Metabolic Activation: NONE, Method: STANDARD PLATE) “active; positive”; (Test System: AMES SALMONELLA TYPHIMURIUM, Strain/Indicator: TA98(NR), Metabolic Activation: RAT, LIVER, S-9, AROCLOR 1254, Method: STANDARD PLATE) “active; positive”; under setting [1], “active; positive”; under setting [2], “active; positive”; (Test System: AMES SALMONELLA TYPHIMURIUM, Strain/Indicator: TA1538(NR), Metabolic Activation: NONE, Method: STANDARD PLATE) “active; positive”; (Test System: AMES SALMONELLA TYPHIMURIUM, Strain/Indicator: TA1538(NR), Metabolic Activation: RAT, LIVER, S-9, AROCLOR 1254, Method: STANDARD PLATE) “active; positive”. Further, the mutagenic call was “active; positive” under setting [7] and “active; positive” under setting [8].
As for `CN1CCN(N=O)CC1`, the mutagenic call (Test System: CHINESE HAMSTER V-79, Strain/Indicator: V-79/8-AZAGUANINE, Metabolic Activation: RAT, LIVER, S-15, PHENOBARBITAL, Method: STANDARD PLATE) was “active; positive”.

For the origin of these results see PubChem BioAssay AID1259407 (Chemical Carcinogenesis Research Information System (CCRIS), 2018).
